{"source": "patent US4554281A", "about": "“2-Amino-3-acylamino-6-benzylamino-pyridine-derivative having antiepileptic action” (priority 1982, dated 1985)", "key": {"[1]": {"assay": "MES - Maximum Electroshock Attack Test (anticonvulsive action, intraperitoneal)", "format": "in vivo, mouse (male Carworth Farms Mice)", "conditions": "in vivo, ip; mouse, intraperitoneal; number below the slanting line; read-out: quotient TD 50/ED 50 (MES), therapeutic breadth", "protocol": "(§1) All experiments were carried out with male Carworth Farms Mice.\n(§2) The materials were tested in three dosages (30, 100, 300 mg/kg) (600 mg/kg was co-tested if a sufficient amount of the material was present). The materials in each case were dissolved in 30% aqueous polyethylene glycol solution.\n(§3) A maximum electroshock attack was obtained through alternating current (60 Hz, 50 m A intensity) with which the mouse was irritated for 0.2 seconds via corneal electrodes. A 5-7 times weaker intensity of irritation was sufficient to produce a minimum electroshock-attack. One drop of 0.9% aqueous NaCl solution was given before applying the electrodes into the eyes in order to guard against killing the animals. The test substances were dispersed intraperitoneally before the irritation. […] the tonic stretching components of the attack (rear extremities) was regarded as protective action. The results were represented as follows:\n(§4) number of animals having protective action/total number of test animals"}, "mouse [2]": {"tested_on": "mouse", "assay": "MES - Maximum Electroshock Attack Test (anticonvulsive action, intraperitoneal)", "format": "in vivo, mouse (male Carworth Farms Mice)", "conditions": "ip, read-out: Maximum Electro-Shock (MES) ED 50", "protocol": "as §1, §2, §3, §4"}, "[3]": {"assay": "s.c. Met - Subcutaneous Pentetrazole (Metrazole) Test (anticonvulsive action, intraperitoneal)", "format": "in vivo, mouse (male Carworth Farms Mice)", "conditions": "in vivo, ip; mouse, intraperitoneal; number below the slanting line; read-out: quotient TD 50/ED 50 (MET), therapeutic breadth", "protocol": "as §1, §2\n(§5) The absence of a clearly noticeable attack, (single occurrence of a […] spasm lasting 5 seconds) based on the previous intraperitoneal application of the test substances evaluated as protective action (the test substances were applied intraperitoneally before the application of pentetrazole). The results were represented as follows: number of animals having protective action/total number of test animals"}, "mouse [4]": {"tested_on": "mouse", "assay": "s.c. Met - Subcutaneous Pentetrazole (Metrazole) Test (anticonvulsive action, intraperitoneal)", "format": "in vivo, mouse (male Carworth Farms Mice)", "conditions": "ip, read-out: Metrazole-Test (MET) ED 50", "protocol": "as §1, §2, §5"}, "[5]": {"assay": "TD 50 - Neurotoxicity, rotating rod", "set-up": "species or system mouse (male Carworth Farms Mice)", "conditions": "in vivo, ip, mouse, intraperitoneal", "protocol": "TD 50: is the ED 50 for the behavior of the mouse on the experimental\nmodel of the rotating rod in mg/kg with intraperitoneal application. The\nTD 50 is a measure for the undesired neurotoxic side effect.\nas §1, §2\nThe test on the rotating rod was referred to for the evaluation of the neurotoxicity. The animals were placed on a rotating (6 rotations per minute) plastic rod having a diameter of 2.54 cm. […] An animal was characterized as neurologically toxic if it fell from the rotating rod within one minute.\nnumber of animals which fell/total number of test animals"}, "[6]": {"assay": "Oral acute toxicity (LD 50) according to Miller & Tainter", "set-up": "species or system white mouse", "conditions": "in vivo, mouse, per os, observation time 24 hours", "protocol": "Examples for the toxicity on the mouse per se (expressed as LD 50 in mg/kg are as follows: […]\nThe determination of the oral toxicity on the white mouse was carried out in the international procedure according to Miller & Tainter (Proc. Soc., Exper. Biol. a Med. Vol. 57, page 261 et. seq. (1944)) with an observation time of 24 hours. The toxicity was stated as LD 50 in mg/kg."}}}
{"smiles": "CCOC(=O)Nc1ccc(NCc2ccc(Cl)cc2)nc1N.Cl", "note": "[D 9389, 2-amino-3-carbethoxyamino-6-(4-chlorobenzylamino)-pyridine-hydrochloride]", "values": [{"measurement": "selectivity ratio", "setting": "[1]", "value": 1.64}, {"measurement": "ED50", "setting": "mouse [2]; Mus musculus", "value": 14.6, "unit": "mg/kg"}, {"measurement": "selectivity ratio", "setting": "[3]", "value": 2.39}, {"measurement": "ED50", "setting": "mouse [4]; Mus musculus", "value": 10, "unit": "mg/kg"}, {"measurement": "TD50", "setting": "[5]", "value": 23.9, "unit": "mg/kg"}, {"measurement": "LD50 at 24 h", "setting": "[6]", "value": "1250 to 1500", "unit": "mg/kg"}]}
{"smiles": "CC(=O)Nc1ccc(NCc2ccc(F)cc2)nc1N.Cl", "note": "[D 13 223, 2-amino-3-acetamino-6-(4-fluoro-benzylamino)-pyridine-hydrochloride]", "values": [{"measurement": "selectivity ratio", "setting": "[1]", "value": 2.38}, {"measurement": "ED50", "setting": "mouse [2]; Mus musculus", "value": 84.3, "unit": "mg/kg"}, {"measurement": "selectivity ratio", "setting": "[3]", "value": 2.14}, {"measurement": "ED50", "setting": "mouse [4]; Mus musculus", "value": 93.8, "unit": "mg/kg"}, {"measurement": "TD50", "setting": "[5]", "value": 201, "unit": "mg/kg"}]}
{"smiles": "CCOC(=O)Nc1ccc(NCc2ccc(C(C)=O)cc2)nc1N", "note": "[D 10 558, 2-amino-3-carbethoxyamino-6-(4-methylcarbonyl-benzylamino)-pyridine]", "values": [{"measurement": "selectivity ratio", "setting": "[1]", "value": 1.37}, {"measurement": "ED50", "setting": "mouse [2]; Mus musculus", "value": 53.8, "unit": "mg/kg"}, {"measurement": "selectivity ratio", "setting": "[3]", "value": 4}, {"measurement": "ED50", "setting": "mouse [4]; Mus musculus", "value": 18.4, "unit": "mg/kg"}, {"measurement": "TD50", "setting": "[5]", "value": 73.9, "unit": "mg/kg"}]}
{"smiles": "CCOC(=O)Nc1ccc(NCc2ccc(F)cc2)nc1N.Cl", "note": "[D 9998, 2-amino-3-carbethoxyamino-6-(4-fluorobenzylamino)-pyridine-hydrochloride]", "values": [{"measurement": "selectivity ratio", "setting": "[1]", "value": 1.67}, {"measurement": "ED50", "setting": "mouse [2]; mouse, intraperitoneal", "value": 22.5, "unit": "mg/kg"}, {"measurement": "selectivity ratio", "setting": "[3]", "value": 1.86}, {"measurement": "ED50", "setting": "mouse [4]; mouse, intraperitoneal, s.c. pentetrazole 85 mg/kg", "value": 20.3, "unit": "mg/kg"}, {"measurement": "TD50", "setting": "[5]", "value": 37.7, "unit": "mg/kg"}, {"measurement": "LD50 at 24 h", "setting": "[6]", "value": 617, "unit": "mg/kg"}]}
{"smiles": "CCOC(=O)Nc1ccc(NCc2ccc(C(F)(F)F)cc2)nc1N.Cl", "note": "[D 11 208, 2-amino-3-carbethoxyamino-6-(4-trifluoromethyl-benzylamino)-pyridine-hydrochloride]", "values": [{"measurement": "selectivity ratio", "setting": "[1]", "value": 2.73}, {"measurement": "ED50", "setting": "mouse [2]; Mus musculus", "value": 27.9, "unit": "mg/kg"}, {"measurement": "selectivity ratio", "setting": "[3]", "value": 6.81}, {"measurement": "ED50", "setting": "mouse [4]; Mus musculus", "value": 11.2, "unit": "mg/kg"}, {"measurement": "TD50", "setting": "[5]", "value": 76.3, "unit": "mg/kg"}]}
{"smiles": "CCOC(=O)Nc1ccc(NCc2ccc(NC(C)=O)cc2)nc1N.Cl", "note": "[D 9663, 2-amino-3-carbethoxyamino-6-(4-methylcarbonylamino-benzylamino)-pyridine-hydrochloride]", "values": [{"measurement": "selectivity ratio", "setting": "[1]", "value": 1.15}, {"measurement": "ED50", "setting": "mouse [2]; Mus musculus", "value": 124, "unit": "mg/kg"}, {"measurement": "selectivity ratio", "setting": "[3]", "value": 2.49}, {"measurement": "ED50", "setting": "mouse [4]; Mus musculus", "value": 57.2, "unit": "mg/kg"}, {"measurement": "TD50", "setting": "[5]", "value": 142, "unit": "mg/kg"}]}
{"smiles": "CCOC(=O)Nc1ccc(NCc2ccccc2)nc1N.Cl", "note": "[D 7175, 2-amino-3-carbethoxyamino-6-benzylamino-pyridine-hydrochloride]", "values": [{"measurement": "selectivity ratio", "setting": "[1]", "value": 2.3}, {"measurement": "ED50", "setting": "mouse [2]; Mus musculus", "value": 19.7, "unit": "mg/kg"}, {"measurement": "selectivity ratio", "setting": "[3]", "value": 4.8}, {"measurement": "ED50", "setting": "mouse [4]; Mus musculus", "value": 9.46, "unit": "mg/kg"}, {"measurement": "TD50", "setting": "[5]", "value": 45.6, "unit": "mg/kg"}, {"measurement": "LD50 at 24 h", "setting": "[6]", "value": 402, "unit": "mg/kg"}]}
{"smiles": "CCOC(=O)Nc1ccc(NCc2c(C)cc(C)cc2C)nc1N.Cl", "note": "[D 10 328, 2-amino-3-carbethoxyamino-6-(2,4,6-trimethyl-benzylamino)pyridine-hydrochloride]", "values": [{"measurement": "selectivity ratio", "setting": "[1]", "value": 0.55}, {"measurement": "ED50", "setting": "mouse [2]; Mus musculus", "value": 1.97, "unit": "mg/kg"}, {"measurement": "selectivity ratio", "setting": "[3]", "value": 1.08}, {"measurement": "ED50", "setting": "mouse [4]; Mus musculus", "value": 1.01, "unit": "mg/kg"}, {"measurement": "TD50", "setting": "[5]", "value": 1.09, "unit": "mg/kg"}, {"measurement": "LD50 at 24 h", "setting": "[6]", "value": 127, "unit": "mg/kg"}]}
{"smiles": "CCOC(=O)Nc1ccc(NCc2cccc(F)c2)nc1N.Cl", "note": "[D 10 981, 2-amino-3-carbethoxyamino-6-(3-fluorobenzylamino)-pyridine-hydrochloride]", "values": [{"measurement": "selectivity ratio", "setting": "[1]", "value": 1.9}, {"measurement": "ED50", "setting": "mouse [2]; Mus musculus", "value": 17.2, "unit": "mg/kg"}, {"measurement": "selectivity ratio", "setting": "[3]", "value": 3.61}, {"measurement": "ED50", "setting": "mouse [4]; Mus musculus", "value": 9.07, "unit": "mg/kg"}, {"measurement": "TD50", "setting": "[5]", "value": 32.7, "unit": "mg/kg"}, {"measurement": "LD50 at 24 h", "setting": "[6]", "value": 2060, "unit": "mg/kg"}]}
{"smiles": "CCOC(=O)Nc1ccc(NCc2ccc(S(N)(=O)=O)cc2)nc1N", "note": "[D 9805, 2-amino-3-carbethoxyamino-6-(4-aminosulfonyl-benzylamino)-pyridine]", "values": [{"measurement": "selectivity ratio", "setting": "[1]", "value": 4.9}, {"measurement": "ED50", "setting": "mouse [2]; Mus musculus", "value": 108, "unit": "mg/kg"}, {"measurement": "selectivity ratio", "setting": "[3]", "value": 0.96}, {"measurement": "ED50", "setting": "mouse [4]; Mus musculus", "value": 550, "unit": "mg/kg"}, {"measurement": "TD50", "setting": "[5]", "value": 530, "unit": "mg/kg"}]}
